Experimental data: publication PMC11866180, “Facile Synthesis of Carbamoyl Fluorides viaN-Carbamoylimidazole Activation” (ACS Omega, 2025)
Like-named read-outs stand apart in the source and are kept apart here.

How the values were obtained:
Test in all cases: Ellman assay, […] nm
Format in all cases: biochemical
[1] = target: T1, hBChE (human butyrylcholinesterase) (Homo sapiens, UniProt P06276)
T1 construct: gene BCHE

[2] = target: T2, hAChE (human acetylcholinesterase) (Homo sapiens, UniProt P22303)
T2 construct: gene ACHE

[3] = target: T1, hBChE (human butyrylcholinesterase); remark: listed apart in the source

T2 sequence (P22303 32-614): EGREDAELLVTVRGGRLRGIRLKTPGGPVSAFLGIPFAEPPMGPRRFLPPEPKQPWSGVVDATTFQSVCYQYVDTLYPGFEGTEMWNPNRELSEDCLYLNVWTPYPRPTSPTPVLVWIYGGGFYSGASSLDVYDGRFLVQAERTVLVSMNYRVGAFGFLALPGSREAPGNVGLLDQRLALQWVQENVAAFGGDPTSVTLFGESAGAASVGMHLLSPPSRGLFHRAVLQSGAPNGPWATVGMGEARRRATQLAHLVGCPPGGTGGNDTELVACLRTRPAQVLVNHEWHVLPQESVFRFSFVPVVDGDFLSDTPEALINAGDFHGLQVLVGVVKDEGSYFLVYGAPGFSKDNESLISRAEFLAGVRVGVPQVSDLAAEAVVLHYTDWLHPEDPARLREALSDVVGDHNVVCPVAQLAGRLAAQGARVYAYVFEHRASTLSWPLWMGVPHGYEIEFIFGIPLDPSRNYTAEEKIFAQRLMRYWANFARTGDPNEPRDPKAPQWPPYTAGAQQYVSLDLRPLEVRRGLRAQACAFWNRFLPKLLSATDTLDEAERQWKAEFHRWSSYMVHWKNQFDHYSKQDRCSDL
T1 sequence (P06276 29-602): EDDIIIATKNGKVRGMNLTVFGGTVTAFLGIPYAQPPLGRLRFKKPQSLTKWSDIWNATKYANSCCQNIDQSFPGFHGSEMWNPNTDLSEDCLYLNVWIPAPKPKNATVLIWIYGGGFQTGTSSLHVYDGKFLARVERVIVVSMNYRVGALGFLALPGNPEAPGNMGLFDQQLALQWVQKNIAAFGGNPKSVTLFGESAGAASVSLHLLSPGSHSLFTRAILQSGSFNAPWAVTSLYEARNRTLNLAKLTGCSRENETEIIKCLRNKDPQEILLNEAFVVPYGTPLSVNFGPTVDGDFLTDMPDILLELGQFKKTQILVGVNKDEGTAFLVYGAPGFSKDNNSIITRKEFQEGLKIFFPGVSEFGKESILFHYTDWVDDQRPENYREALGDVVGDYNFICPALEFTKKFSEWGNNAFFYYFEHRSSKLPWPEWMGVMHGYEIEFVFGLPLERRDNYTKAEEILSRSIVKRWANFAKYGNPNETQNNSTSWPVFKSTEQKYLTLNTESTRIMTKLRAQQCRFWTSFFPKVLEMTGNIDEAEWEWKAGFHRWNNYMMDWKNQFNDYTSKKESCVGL

Row | SMILES | IC50 ([1]; read-out: hBChE) [µM] | IC50 ([2]; read-out: hAChE) [µM] | IC50 [1] [µM] | IC50 [2] [µM] | activity at 100 µM [3] [%]
1 | CN(Cc1ccccc1)C(=O)F [3a, Benzyl(methyl)carbamic Fluoride] | 0.156 ± 0.009 | 5.65 ± 0.947 | – | – | –
2 | O=C(F)N(Cc1ccccc1)Cc1ccccc1 [3b, Dibenzylcarbamic Fluoride] | 0.0696 ± 0.004 | 2.2 ± 0.27 | – | – | –
3 | CCCCN(Cc1ccccc1)C(=O)F [3c, Benzyl(butyl)carbamic Fluoride] | – | – | 2.43 ± 0.4 | 4.48 ± 1.14 | –
4 | O=C(F)N1CCc2ccccc21 [3d, Indoline-1-carbonyl Fluoride] | – | 4.62 ± 1.15 | – | – | 56.2 ± 3.7
5 | O=C(F)N1Cc2ccccc2C1 [3e, Isoindoline-2-carbonyl Fluoride] | 32.2 | 103 | – | – | –
6 | O=C(F)N1CCc2ccccc2C1 [3f, 3,4-Dihydroisoquinoline-2(1H)-carbonyl Fluoride] | 0.707 ± 0.122 | 22.6 | – | – | –
7 | O=C(F)N1CCC(Cc2ccccc2)CC1 [3g, 4-Benzylpiperidine-1-carbonyl Fluoride] | 0.00278 ± 0.00015 | 0.554 ± 0.079 | – | – | –
8 | O=C(F)N1CCC(c2c[nH]c3ccccc23)CC1 [3h, 4-(1H-Indol-3-yl)piperidine-1-carbonyl Fluoride] | – | – | 0.0235 ± 0.0046 | 18.7 | –
9 | C#CCCCCCCCCCN(C)C(=O)F [3i, Methyl(undec-10-yn-1-yl)carbamic Fluoride] | – | – | 0.197 ± 0.036 | 5.07 ± 1.15 | –
10 | O=C(F)N1CCN(c2ccccc2F)CC1 [3j, 4-(2-Fluorophenyl)piperazine-1-carbonyl Fluoride] | – | – | 0.656 ± 0.032 | 10.7 | –
11 | CN(C(=O)F)c1cccc2cc[nH]c12 [3k, (1H-Indol-7-yl)(methyl)carbamic Fluoride] | 0.00556 ± 0.00083 | 0.151 ± 0.008 | – | – | –
